Reference: patent US6331548A, “1-cycloalkyl-1,8-naphthyridin-4-one derivative as type IV phosphodiesterase inhibitor” (Suntory Limited, priority 1998, dated 2001)
Counter-ions that a name gives are not always drawn.

Columns and labels:
[1] = molecular target: type IV phosphodiesterase; assay: Type IV phosphodiesterase inhibiting activity; type: biochemical, human; details: U937 type IV phosphodiesterase fraction, 0.28 μM cAMP, pH 7.5, 30° C., 30 minutes; read-out: PDEIV-IC50
Description: The following assay was used to evaluate the ability of the compound of the present invention to suppress type IV phosphodiesterase, according to Biochemical. Pharmacol. 48 (6), 1219-1223 (1994).
1) Type IV phosphodiesterase activity fractions were prepared as follows. Namely, human histiocytic lymphoma cell line U937 was cultured in an RPMI1640 medium containing 10% fetal calf serum to obtain 10^9 cells of U937. The cells were recovered by centrifugation and suspended in 40 ml of buffer A (20 mM bis-tris, 5 mM 2-mercaptoethanol, 2 mM benzamidine, 2 mM EDTA, 0.1 mM 4-(2-aminoethyl)benzensulfonyl hydrochloride, 50 mM sodium acetate, pH=6.5). The cells were broken by a sonication and centrifuged (4° C., 10,000 G, 10 minutes) to obtain a supernatant. This was filtered by a 0.45 μm filter to obtain the soluble fraction.
2) The soluble fraction obtained was applied into a 1×10 cm DEAE Sepharose column equalibrated with the buffer A. 120 ml of the buffer A containing a linear gradient solution of 0.05 to 1M sodium acetate was used to separate the phosphodiesterase and recover 24 5-ml fractions. Each of the fractions was measured for the cAMP phosphodiesterase activity.
3) The test compound was reacted at a desired concentration in a reaction mixture containing 20 mM tris-HCl (pH 7.5), 1 mM MgCl2, 100 μM EDTA, 330 μg/ml calf serum albumin, 10 μg/ml 5'-nucleotidase, 0.4 μCi ^3 H-cAMP (0.28 μM cAMP) and the type IV phosphodiesterase stored solution at 30° C. for 30 minutes. QAE-Sephadex suspended in 10 mM of hepes-Na (pH -7.0) was added to the reaction mixture which was then allowed to stand for 5 minutes, then the supernatant was obtained, QAE-Sephadex was further added, to the supernatant, and was allowed to stand for 5 minutes, then the supernatant was obtained and measured for radioactivity.

[2] = system: TNF-α production by LPS stimulated macrophages; assay: TNF-α production inhibitory activity by LPS stimulated macrophages; type: cell-based; details: Macrophage, BALB/c mouse peritoneal macrophages, cultured for 8 hours, ELISA
Description: The following assay was used to evaluate the ability of the compound of the present invention to suppress TNF-α production by LPS stimulated macrophages according to Immunopharmacol. 29, 121-127 (1995).
1) 6 to 10 week old female BALB/c mice were used, 2 ml portions of thioglycolate were intraperitoneally administered, and the abdominal cavities were washed by 10 ml of PBS after 4 days, whereby 1 to 2×10^7 peritoneal cells were obtained per mouse. These were suspended in a hemocyte solution (0.75% ammonium chloride, 17 mM tris-hydrochlorate buffer, pH7.2), centrifuged, then resuspended in an RPMI1640 medium including 10% fetal calf serum and seeded in a 96-well cell culture plate at a density of 1×10^5 cells/50 μl/well. Since these cells adhered strongly to the tissue culture plate and were positive in nonspecific esterase staining, they were used for the test as mouse peritoneal macrophages. Mouse peritoneal macrophages were precultured overnight at 37° C. in […] for the experiment.
2) E. Coli (serum type 055:B5) derived LPS was dissolved in PBS in a concentration of 1 mg/ml, then sterilized by filtration. The test compound was dissolved in DMSO to make a 1000-fold concentration solution of the final concentration of use. 10 μl of the above LPS stock solution (final concentration 10 μg/ml) and 1 μl of the tested substance stock solution were added and mixed in 0.5 ml of RPMI1640 medium containing 10% fetal calf serum. This was added to the above cells at 50 μl/well and cultured for 8 hours. The cultured supernatant was recovered from each well and the TNF-α concentration was measured by the ELISA method (Cytoscreen® Immunoassay Kit Mouse TNF-α, BioSourse International).
The comparative example was the compound described in WO-A-97-04775, Example 1, mentioned above.

mice = assay: Toxicity: death on intraperitoneal administration to mice for 5 weeks; type: in vivo; details: 10 mg/kg per day intraperitoneally for 5 weeks
Text: Further, the compounds of the present invention are low in toxicity, and these compounds are expected to be high in safety.

| IC50 [1] | IC50 [2] | SMILES | death (mice) |
| --- | --- | --- | --- |
| 40 nM | 800 nM | O=C(Nc1c(Cl)cncc1Cl)c1cn(C2CCNCC2)c2ncccc2c1=O [Example 47, N-(3,5-dichloropyridin-4-yl)-1-(4-piperidyl)-1,4-dihydro[1,8]naphthylidin-4-one-3-carboxamide hydrochloride] |  |
| 4.8 nM | 1500 nM | O=CN1CCC(n2cc(C(=O)Nc3c(Cl)cncc3Cl)c(=O)c3cccnc32)CC1 [Example 48, N-(3,5-dichloropyridin-4-yl)-1-(1-formylpiperidin-4-yl)-1,4-dihydro[1,8]naphthylidin-4-one-3-carboxamide] |  |
| 22 nM | 200 nM | O=C(CN1CCC(n2cc(C(=O)Nc3c(Cl)cncc3Cl)c(=O)c3cccnc32)CC1)OCc1ccccc1 [Example 49, benzyl 2-{4-[3-[(3,5-dichloropyridin-4-yl)amino]carbonyl-1,4-dihydro[1,8]naphthylidin-4-one-1-yl]piperidino}acetate] |  |
| 100 nM | 7000 nM | O=C(O)CN1CCC(n2cc(C(=O)Nc3c(Cl)cncc3Cl)c(=O)c3cccnc32)CC1 [Example 50] |  |
| 43 nM | 50 nM | CN1CCC(n2cc(C(=O)Nc3c(Cl)cncc3Cl)c(=O)c3cccnc32)CC1 [Example 51, N-(3,5-dichloropyridin-4-yl)-1-(1-methylpiperidin-4-yl)-1,4-dihydro[1,8]naphthylidin-4-one-3-carboxamide] |  |
| 6.7 nM | 10 nM | CN1CCN(n2cc(C(=O)Nc3c(Cl)cncc3Cl)c(=O)c3cccnc32)CC1 [Example 55, N-(3,5-dichloropyridin-4-yl)-1-(4-methylpiperazine-1-yl)-1,4-dihydro[1,8]naphthylidin-4-one-3-carboxamide] |  |
| 140 nM | 3000 nM | O=C(Nc1c(Cl)cncc1Cl)c1cn([C@H]2C[C@H]3COC(=O)N3C2)c2ncccc2c1=O [Example 86, N-(3,5-dichloropyridine-4-yl)-1-[(5S,7S)-1-aza-3-oxabicyclo[3,3,0]octan-2-one-7-yl]-1,4-dihydro[1,8]naphthylidin-4-one-3-carboxamide] |  |
| 2.1 nM | 70 nM | CN(C)C(=O)[C@@H]1C[C@H](n2cc(C(=O)Nc3c(Cl)cncc3Cl)c(=O)c3cccnc32)CN1C(=O)OCc1ccccc1 [Example 92, N-(3,5-dichloropyridin-4-yl)-1-[(3S,5S)-(1-benzyloxycarbonyl-5-dimethylaminocarbonyl)pyrrolidin-3-yl]-1,4-dihydro[1,8]naphthylidin-4-one-3-carboxamide] |  |
| 69 nM | 2000 nM | CN(C)C(=O)[C@@H]1C[C@H](n2cc(C(=O)Nc3c(Cl)cncc3Cl)c(=O)c3cccnc32)CN1 [Example 93, N-(3,5-dichloropyridin-4-yl)-1-[(3S,5S)-(5-dimethylaminocarbonyl)pyrrolidin-3-yl]-1,4-dihydro[1,8]naphthylidin-4-one-3-carboxamide] |  |
| 43 nM | 70 nM | O=C(Nc1ccncc1)c1cn(C2CCSCC2)c2ncccc2c1=O [Example 100, N-(4-pyridyl)-1-(4-tetrahydrothiopyranyl)-1,4-dihydro[1,8]naphthylidin-4-one-3-carboxamide] |  |
| 0.4 nM | 3 nM | O=C(Nc1c(Cl)cncc1Cl)c1cn(C2CCSCC2)c2ncccc2c1=O [Example 101, N-(3,5-dichloropyridin-4-yl)-1-(4-tetrahydrothiopyranyl)-1,4-dihydro[1,8]naphthylidin-4-one-3-carboxamide] |  |
| 16 nM | 200 nM | O=C(Nc1c(Cl)cncc1Cl)c1cn(C2CCS(=O)(=O)CC2)c2ncccc2c1=O [Example 102 (Sulfon), N-(3,5-dichloropyridin-4-yl)-1-(1,1-dioxotetrahydrothiopyran-4-yl)-1,4-dihydro[1,8]naphthylidin-4-one-3-carboxamide] |  |
| 5.1 nM | 70 nM | O=C(Nc1c(Cl)cncc1Cl)c1cn(C2CC[S+]([O-])CC2)c2ncccc2c1=O (stereo not drawn) [Example 102 (Sulfoxide), N-(3,5-dichloropyridin-4-yl)-1-(1-oxotetrahydrothiopyran-4-yl)-1,4-dihydro[1,8]naphthylidin-4-one-3-carboxamide] |  |
| 0.4 nM | 3 nM | O=C(Nc1c(Cl)cncc1Cl)c1cn(N2CCOCC2)c2ncccc2c1=O [Example 107, N-(3,5-dichloropyridin-4-yl)-1-(1-morpholino)-1,4-dihydro[1,8]naphthylidin-4-one-3-carboxamide] |  |
| 400 nM | 300 nM | O=C(Nc1ccncc1)c1cn([C@H]2CC[C@H](O)CC2)c2ncccc2c1=O [Example 113, N-(4-pyridyl)-1-(trans-4-hydroxycyclohexyl)-1,4-dihydro[1,8]naphthylidin-4-one-3-carboxamide] |  |
| 1 nM | 0.04 nM | O=C(Nc1c(Cl)cncc1Cl)c1cn([C@H]2CC[C@@H](O)CC2)c2ncccc2c1=O [Example 119, N-(3,5-dichloropyridin-4-yl)-1-(cis-4-hydroxycyclohexyl)-1,4-dihydro[1,8]naphthylidin-4-one-3-carboxamide] |  |
| 200 nM | 1200 nM | O=C(Nc1ccncc1Cl)c1cn([C@H]2CC[C@H](O)CC2)c2ncccc2c1=O [Example 122, N-(3-chloropyridin-4-yl)-1-(trans-4-hydroxycyclohexyl)-1,4-dihydro[1,8]naphthylidin-4-one-3-carboxamide] |  |
| 390 nM | 1200 nM | O=C1CCC(n2cc(C(=O)Nc3ccncc3Cl)c(=O)c3cccnc32)CC1 [Example 123, N-(3-chloropyridin-4-yl)-1-(4-oxocyclohexyl)-1,4-dihydro[1,8]naphthylidin-4-one-3-carboxamide] |  |
| 720 nM | 1800 nM | CO[C@H]1CC[C@H](n2cc(C(=O)Nc3ccncc3)c(=O)c3cccnc32)CC1 [Example 126, N-(4-pyridyl)-1-(trans-4-methoxycyclohexyl)-1,4-dihydro[1,8]naphthylidin-4-one-3-carboxamide] |  |
| 2.5 nM | 10 nM | O=C(Nc1c(Cl)cncc1Cl)c1cn(C2CC2)c2ncccc2c1=O [Example 140, N-(3,5-dichloropyridin-4-yl)-1-cyclopropyl-1,4-dihydro[1,8]naphthylidin-4-one-3-carboxamide] |  |
| 41 nM | 78 nM | O=C(Nc1ccncc1)c1cn(C2CCCC2)c2ncccc2c1=O [Example 149, N-(4-pyridyl)-1-cyclopentyl-1,4-dihydro[1,8]naphthylidin-4-one-3-carboxamide] |  |

| SMILES | IC50 [1] | IC50 [2] | death (mice) |
| --- | --- | --- | --- |
| O=C(Nc1c(Cl)cncc1Cl)c1cn([C@H]2CCN(C(=O)OCc3ccccc3)C2)c2ncccc2c1=O [Example 10, (S)-N-(3,5-dichloropyridin-4-yl)-1-(1-benzyloxycarbonylpyrrolidin-3-yl)-1,4-dihydro[1,8]naphthyridin-4-one-3-carboxamide] | 1.5 nM | 10 nM | no death |
| COC(=O)N1CC[C@H](n2cc(C(=O)Nc3c(Cl)cncc3Cl)c(=O)c3cccnc32)C1 [Example 11, (S)-N-(3,5-dichloropyridin-4-yl)-1-(1-methoxycarbonylpyrrolidin-3-yl)-1,4-dihydro[1,8]naphthyridin-4-one-3-carboxamide] | 1.7 nM | 4 nM | no death |
